Measured values from the supplement of paper PMC11451515.

Key:
Experiment in all cases: AUC of viability dose-response curve (% viability x log10 dose units); higher = less sensitive
Conditions in all cases: 48 h
SEM cells = system: SEM cells
In short: (§1)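 Viability of medium-adapted leukemia cells was measured by CellTiter-Glo One luminescence after 48 h at 37°C with library compounds in DMSO. Doses were 11 threefold steps from 47 μM to 0.79 nM, in 1536-well plates at 500 or 1000 cells/well. Signals were normalised per plate to DMSO and cell-free wells and fitted with a four-parameter log-logistic model on log10 dose. Area under the curve was integrated by trapezoidal rule, with curves exceeding full viability scaled and failed quality-control curves removed.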

P12-Ichikawa = system: P12-Ichikawa
In short: as §1

NOMO1 = system: NOMO1
In short: as §1

[1] = RPMI 5 mM glucose + 10% dialyzed FBS

Row | Compound | AUC of viability dose-response curve (SEM cells; HPLM + 10% dialyzed FBS) | AUC of viability dose-response curve (SEM cells; RPMI 5 mM glucose + 10% FBS) | AUC of viability dose-response curve (SEM cells; [1]) | AUC of viability dose-response curve (P12-Ichikawa; HPLM + 10% dialyzed FBS) | AUC of viability dose-response curve (P12-Ichikawa; RPMI 5 mM glucose + 10% FBS) | AUC of viability dose-response curve (P12-Ichikawa; [1]) | AUC of viability dose-response curve (NOMO1; HPLM + 10% dialyzed FBS) | AUC of viability dose-response curve (NOMO1; RPMI 5 mM glucose + 10% FBS) | AUC of viability dose-response curve (NOMO1; [1])
1 | CC(C)C1=C(O)C=C(O)C(=C1)C/2=N/NC(=O)N2C3=CC4=C(C=C3)[N](C)C=C4 | 248 | 241 | 259 | 335 | 304 | 307 | 259 | 254 | 250
2 | CCn1c(-c2nonc2N)nc2cnc(Oc3cccc(NC(=O)c4ccc(OCCN5CCOCC5)cc4)c3)cc21 | 457 | 442 | 456 | 446 | 427 | 438 | 456 | 432 | 429
3 | C[C@@H]\1CC(=O)N\N=C1C2=CC=C(NN=C(C#N)C#N)C=C2 | 397 | 368 | 393 | 424 | 417 | 392 | 426 | 410 | 413
4 | COc1cc(OC)c(/C=C/[S+](=O)([O-])Cc2ccc(OC)c(NCC(=O)[O][Na])c2)c(OC)c1 | 287 | 269 | 249 | 271 | 269 | 257 | 315 | 309 | 278
5 | Cn1cnc2c1c(=O)[nH]c(=O)n2C | 447 | 415 | 443 | 452 | 452 | 445 | 440 | 443 | 449
6 | C[S+]([O-])(=O)C1=CC=C(C=C1)C/2=C(/C(=O)OC2)C3=CC=CC=C3 | 466 | 431 | 453 | 468 | 449 | 472 | 465 | 463 | 445
7 | CCOC(=O)C/1=C(O)/C(=O)N(CC2=CC=CC=C2)C1 | 463 | 469 | 468 | 462 | 466 | 468 | 459 | 446 | 462
8 | C=CC(=O)N1CCC[C@@H](n2nc(-c3ccc(Oc4ccccc4)cc3)c3c(N)ncnc32)C1 | 456 | 443 | 424 | 414 | 458 | 452 | 462 | 446 | 467
9 | O=C(O)C1=NC(C(=O)O)CC(/C=C/N2c3cc(O)c(OC4OC(CO)C(O)C(O)C4O)cc3CC2C(=O)O)=C1 (stereo not given) | 467 | 466 | 461 | 463 | 450 | 462 | 462 | 465 | 421
10 | CN1CCCN=C1/C=C/c1cccs1.O=C(O)c1cc2ccccc2c(Cc2c(O)c(C(=O)O)cc3ccccc23)c1O | 467 | 442 | 453 | 413 | 462 | 462 | 417 | 446 | 436
